Reference: US11078168B2, “Substituted N-hydroxyamidinoheterocycles as modulators of indoleamine 2,3-dioxygenase” (PHENEX DISCOVERY VERWALTUNGS-GMBH, priority 2016, dated 2021)

Molecular target: T1, Indoleamine 2,3-dioxygenase (Homo sapiens, UniProt P14902)
T1 construct: endogenous in cells; host or cells: SKOV-3 (ATCC HTB-77), stimulated with interferon gamma
Test: SKOV-3 cellular Indoleamine 2,3-dioxygenase assay
Conditions: SKOV-3 cells, 50 ng/ml Interferon gamma, 100 μM L-Tryptophan, 24 hours, N-Formylkynurenin fluorescence detection; read-out: cell based activity
Experimental: SKOV-3 cellular Indoleamine 2,3-dioxygenase assay
SKOV-3 cells were obtained from the American Type Culture Collection (ATCC® HTB-77™) and maintained in McCoy's medium (Pan Biotech) supplemented with 10% fetal bovine serum and 1% Penicilin/Streptomycin. Cells were kept at 37° C. in a humidified incubator with 5% CO2. For assay preparation, cells were seeded at a density of 2*10^5/ml into black clear bottom 96 well plates in 100 μl medium/well supplemented with 50 ng/ml Interferon gamma (eBioscience, Thermo Fisher Scientific). After cells fully adhered to the plate, dilution series of compounds were added in medium containing additional L-Tryptophan to a final L-Tryptophan concentration of 100 μM. The cells were incubated for 24 hours. Detection of produced N-Formylkynurenin was performed by addition of 3-Methylpiperidine to a final concentration of 200 mM. The plates were sealed and heated to 65° C. for 20 minutes in a water bath. After cooling the fluorescence of each well was recorded with a Victor™X4 (PerkinElmer) plate reader at an emission wavelength of 535 nm and excitation at 405 nm (Tomek et al.; Anal Bioanal Chem (2013) 405:2515-2524., Tomek et al.; Biochim Biophys Acta. 2015 September; 1850(9):1772-80).

T1 sequence (P14902 whole entry): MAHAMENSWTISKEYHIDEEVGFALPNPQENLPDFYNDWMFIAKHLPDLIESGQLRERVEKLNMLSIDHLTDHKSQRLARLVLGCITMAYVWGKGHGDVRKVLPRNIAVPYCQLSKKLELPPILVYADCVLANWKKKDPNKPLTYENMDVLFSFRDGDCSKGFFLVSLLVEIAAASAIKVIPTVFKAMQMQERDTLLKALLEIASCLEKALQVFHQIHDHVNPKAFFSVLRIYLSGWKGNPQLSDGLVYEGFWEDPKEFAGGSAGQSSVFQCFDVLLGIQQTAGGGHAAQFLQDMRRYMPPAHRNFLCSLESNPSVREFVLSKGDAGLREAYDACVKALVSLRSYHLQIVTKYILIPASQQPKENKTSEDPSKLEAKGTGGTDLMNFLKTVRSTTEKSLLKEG

Compound	IC50
NS(=O)(=O)NCC(=O)NCCSc1nonc1/C(=N/O)Nc1ccc(F)c(C(F)F)c1 [Example 128, N-(2-((4-(N-(3-(Difluoromethyl)-4-fluorophenyl)-N′-hydroxycarbamimidoyl)-1,2,5-oxadiazol-3-yl)thio)ethyl)-2-(sulfamoylamino)acetamide]	< 0.1 µM
NS(=O)(=O)CC(=O)NCCSc1nonc1/C(=N/O)Nc1ccc(F)c(Br)c1 [107/14]	< 0.1 µM
NS(=O)(=O)CC(=O)NCCSc1nonc1C(=NO)Nc1cccc(CF)c1 [107/11]	< 0.1 µM
Nc1c(NCCSc2nsnc2C(=NO)Nc2ccc(F)c(Cl)c2)c(=O)c1=O [102/2]	0.1 to 1 µM
CC(CSc1nonc1C(=NO)Nc1ccc(F)c(C(F)F)c1)NC(=O)CS(N)(=O)=O (single isomer, unassigned) [Example 114, N-(1-((4-(N-(3-(difluoromethyl)-4-fluorophenyl)-N′-hydroxycarbamimidoyl)-1,2,5-oxadiazol-3-yl)thio)propan-2-yl)-2-sulfamoylacetamide]	< 0.1 µM
COc1nonc1C(=NO)Nc1cccc(CCCl)c1 [Example 22, N-(3-(2-Chloroethyl)phenyl)-N′-hydroxy-4-methoxy-1,2,5-oxadiazole-3-carboximidamide]	> 1 µM
Cn1nc(C(=O)NCCSc2nonc2C(=NO)Nc2cccc(C(F)(F)F)c2)[nH]c1=O [117/18]	0.1 to 1 µM
CS(=O)(=O)CCC(=O)NCCSc1nonc1/C(=N/O)Nc1ccc(F)c(Br)c1 [107/41]	< 0.1 µM
CS(=N)(=O)CC(=O)NCCSc1nonc1C(=NO)Nc1cccc(Br)c1 (stereo not shown) [127/4]	< 0.1 µM
O=C(NCCSc1nonc1C(=NO)Nc1ccc(F)c(C(F)F)c1)c1ccc(C(F)(F)F)cc1 [107/23]	< 0.1 µM
CN1CCC1C(=O)NCCSc1nonc1C(=NO)Nc1ccc(F)c(C(F)F)c1 (stereo not shown) [Example 124/1, N-(2-((4-(N-(3-(Difluoromethyl)-4-fluorophenyl)-N′-hydroxycarbamimidoyl)-1,2,5-oxadiazol-3-yl)thio)ethyl)-1-methylazetidine-2-carboxamide]	< 0.1 µM
C[C@@H](CSc1nonc1/C(=N/O)Nc1ccc(F)c(Br)c1)NC(=O)CS(N)(=O)=O (single isomer, unassigned) [114/5]	< 0.1 µM
O=C(NCCSc1nonc1C(=NO)Nc1ccc(F)c(C(F)F)c1)c1ccc(C(O)(C(F)(F)F)C(F)(F)F)cc1 [107/20]	0.1 to 1 µM
CC(C)(O)CC(=O)NCCSc1nonc1/C(=N/O)Nc1ccc(F)c(C(F)F)c1 [107/16]	< 0.1 µM
Nc1c(NCCSc2nonc2C(=NO)Nc2cccc(C(F)F)c2)c(=O)c1=O [102/1]	< 0.1 µM
CS(=O)(=O)CC(=O)NCCSc1nonc1/C(=N/O)Nc1ccc(F)c(C(F)F)c1 [107/32]	< 0.1 µM
NS(=O)(=O)CC(=O)NCCSc1nonc1C(=NO)Nc1cc(F)c(F)c(Br)c1 [117/24]	< 0.1 µM
NC(CC(=O)NCCSc1nonc1C(=NO)Nc1ccc(F)c(C(F)F)c1)C(F)(F)F (stereo not shown) [123/7]	< 0.1 µM
C[C@H](CSc1nonc1C(=NO)Nc1ccc(F)c(C(F)F)c1)NC(=O)CCS(N)(=O)=O (single isomer, unassigned) [114/2]	< 0.1 µM
N#CC1(c2ccc(C(=O)NCCSc3nonc3C(=NO)Nc3ccc(F)c(C(F)F)c3)cc2)CC1 [107/28]	< 0.1 µM
CS(=O)(=O)NCCSc1nonc1/C(=N/O)Nc1ccc(F)c(Br)c1 [Example 100, N-(3-Bromo-4-fluorophenyl)-N′-hydroxy-4-((2-(methylsulfonamido)ethyl)thio)-1,2,5-oxadiazole-3-carboximidamide]	< 0.1 µM
NS(=O)(=O)CCC(=O)NCCSc1nonc1C(=NO)Nc1ccc(F)c(C(F)(F)F)c1 [107/35]	< 0.1 µM
O=C(NCCSc1nonc1C(=NO)Nc1ccc(F)c(C(F)F)c1)C(O)CO (stereo not shown) [Example 107, N-(2-((4-(N-(3-(Difluoromethyl)-4-fluorophenyl)-N′-hydroxycarbamimidoyl)-1,2,5-oxadiazol-3-yl)thio)ethyl)-2,3-dihydroxypropanamide]	< 0.1 µM
NC(=O)CS(=O)(=O)NCCSc1nonc1C(=NO)Nc1ccc(F)c(C(F)F)c1 [119/3]	< 0.1 µM
NS(=O)(=O)NCC(=O)NCCSc1nonc1C(=NO)Nc1ccc(F)c(C(F)(F)F)c1 [128/1]	< 0.1 µM
NS(=O)(=O)CC(=O)NCCSc1nonc1C(=NO)Nc1cc(Br)c(F)cc1F [117/22]	< 0.1 µM
CC(CSc1nonc1C(=NO)Nc1ccc(F)c(C(F)F)c1)NC(=O)CC(N)=O (single isomer, unassigned) [Example 115, N^1-(1-((4-(N-(3-(Difluoromethyl)-4-fluorophenyl)-N′-hydroxycarbamimidoyl)-1,2,5-oxadiazol-3-yl)thio)propan-2-yl)malonamide]	< 0.1 µM

Next, values leading:

IC50	Compound
< 0.1 µM	Nc1c(NCCOc2nonc2C(=NO)Nc2ccc(F)c(C(F)(F)F)c2)c(=O)c1=O [2/5]
0.1 to 1 µM	NS(=O)(=O)CC(=O)NCCOc1nonc1C(=NO)Nc1ccc(F)c(Cl)c1 [9/14]
0.1 to 1 µM	O=C(NCCOc1nonc1C(=NO)Nc1ccc(F)c(Cl)c1)C1COCCN1 (stereo not shown) [Example 3, N-(2-((4-(N-(3-Chloro-4-fluorophenyl)-N′-hydroxycarbamimidoyl)-1,2,5-oxadiazol-3-yl)oxy)ethyl)morpholine-3-carboxamide]
< 0.1 µM	CC1(C(=O)NCCSc2nonc2C(=NO)Nc2ccc(F)c(C(F)F)c2)CNC1 [123/5]
> 1 µM	O=C(O)c1ccc(C(=O)NCCOc2nonc2C(=NO)Nc2ccc(F)c(Cl)c2)cc1 [9/9]
> 1 µM	O=C(NCCOc1nonc1C(=NO)Nc1ccc(F)c(Cl)c1)c1nnn[nH]1 [Example 9, N-(2-((4-(N-(3-chloro-4-fluorophenyl)-N′-hydroxycarbamimidoyl)-1,2,5-oxadiazol-3-yl)oxy)ethyl)-1H-tetrazole-5-carboxamide]
0.1 to 1 µM	O=C(NCCOc1nonc1C(=NO)Nc1ccc(F)c(Cl)c1)C1(O)CC1 [9/12]
< 0.1 µM	NS(=O)(=O)N1CC(O)(C(=O)NCCSc2nonc2C(=NO)Nc2ccc(F)c(C(F)F)c2)C1 [128/6]
< 0.1 µM	NS(=O)(=O)C1(C(=O)NCCSc2nonc2C(=NO)Nc2ccc(F)c(C(F)F)c2)CC1 [117/21]
< 0.1 µM	O=C(NCCSc1nonc1C(=NO)Nc1ccc(F)c(C(F)F)c1)C1(F)CNC1 [123/6]
0.1 to 1 µM	ON=C(Nc1ccc(F)c(Cl)c1)c1nonc1OCCN1CCOCC1 [Example 10, N-(3-Chloro-4-fluorophenyl)-N′-hydroxy-4-(2-morpholinoethoxy)-1,2,5-oxadiazole-3-carboximidamide]
> 1 µM	CC(CNS(N)(=O)=O)Oc1nonc1C(=NO)Nc1ccc(F)c(Cl)c1 (single isomer, unassigned) [16/1, N-(3-Chloro-4-fluorophenyl)-N′-hydroxy-4-((1-(sulfamoylamino)propan-2-yl)oxy)-1,2,5-oxadiazole-3-carboximidamide]
< 0.1 µM	CS(=O)(=O)N1CC(O)(C(=O)NCCSc2nonc2C(=NO)Nc2ccc(F)c(C(F)F)c2)C1 [128/5]
0.1 to 1 µM	CN(C)C(=O)C(=O)NCCOc1nonc1C(=NO)Nc1ccc(F)c(Cl)c1 [9/19]
< 0.1 µM	CS(=O)(=O)NCCOc1nonc1C(=NO)Nc1ccc(F)c(Cl)c1 [1/1]
< 0.1 µM	CN(C)S(=O)(=O)NCCOc1nonc1C(=NO)Nc1ccc(F)c(Cl)c1 [6/6]
0.1 to 1 µM	COc1nonc1C(=NO)Nc1ccc(F)c(Cl)c1 [8/2]
< 0.1 µM	NC(=O)CC(=O)NCCOc1nonc1C(=NO)Nc1ccc(F)c(Cl)c1 [7/1, N^1-(2-((4-(N-(3-chloro-4-fluorophenyl)-N′-hydroxycarbamimidoyl)-1,2,5-oxadiazol-3-yl)oxy)ethyl)malonamide]
< 0.1 µM	CCN1CC(O)(C(=O)NCCSc2nonc2C(=NO)Nc2ccc(F)c(C(F)(F)F)c2)C1 [Example 124, 1-Ethyl-N-(2-((4-(N-(4-fluoro-3-(trifluoromethyl)phenyl)-N′-hydroxycarbamimidoyl)-1,2,5-oxadiazol-3-yl)thio)ethyl)-3-hydroxyazetidine-3-carboxamide]
> 1 µM	O=C(NCCSc1nonc1C(=NO)Nc1ccc(F)c(Cl)c1)c1ccc(NS(=O)(=O)C(F)(F)F)nc1 [117/11]
0.1 to 1 µM	CN(CCOc1nonc1C(=NO)Nc1ccc(F)c(Cl)c1)C(=O)CS(N)(=O)=O [9/22]
0.1 to 1 µM	NS(=O)(=O)CC(=O)NCCOc1nonc1C(=NO)Nc1cccc(C(F)(F)F)c1 [9/20]
0.1 to 1 µM	O=C(NCCSc1nonc1C(=NO)Nc1ccc(F)c(Cl)c1)C1(O)CNC1 [Example 123, N-(2-((4-(N-(3-Chloro-4-fluorophenyl)-N′-hydroxycarbamimidoyl)-1,2,5-oxadiazol-3-yl)thio)ethyl)-3-hydroxyazetidine-3-carboxamide]
> 1 µM	CC(C)(C)OC(=O)NC1(C(=O)NCCOc2nonc2C(=NO)Nc2ccc(F)c(Cl)c2)CC1(F)F (stereo not shown) [9/18]
0.1 to 1 µM	NC(=O)N1CC(O)(C(=O)NCCSc2nonc2C(=NO)Nc2ccc(F)c(C(F)F)c2)C1 [128/4]
< 0.1 µM	Nc1c(NCCCOc2nonc2C(=NO)Nc2ccc(F)c(Cl)c2)c(=O)c1=O [2/4]
0.1 to 1 µM	O=C(NCCOc1nonc1C(=NO)Nc1ccc(F)c(Cl)c1)c1ccc(F)cc1 [9/1]
0.1 to 1 µM	O=C(NCCCOc1nonc1C(=NO)Nc1ccc(F)c(Cl)c1)C(O)CO (stereo not shown) [9/7]
